Data as given in patent US20080194585A1, “Fungicidal Pyrazine Derivatives” (priority 2005, published 2008).
Marks after values point to notes of the source that are not given here.

Legend:
[1] = tested on: Plasmopara viticola; experiment: Test D: grape downy mildew, spray after inoculation of grape seedlings; assay type: in vivo
From the text: Upon removal, disease ratings were made. […] A dash (-) indicates no test results.

[2] = tested on: Phytophthora infestans; experiment: whole plant or invertebrate; assay type: in vivo
[3] = tested on: Septoria tritici; experiment: Test J: wheat leaf blotch, preventive spray on wheat seedlings; assay type: in vivo
From the text: A dash (-) indicates no test results.

[4] = tested on: fusarium graminearium; experiment: Test I: wheat head scab, preventive spray on wheat seedlings
Protocol: (the causal agent of wheat head scab) and incubated in a saturated atmosphere at 20° C. for 72 h, and then moved to a growth chamber at 22° C. for 5 days, after which disease ratings were made.

[5] = tested on: Puccinia recondita f. sp. tritici; experiment: Test K: wheat leaf rust, preventive spray on wheat seedlings
[6] = tested on: Botrytis cinerea; experiment: Test E: tomato botrytis, preventive spray on tomato seedlings
[7] = tested on: Septoria nodorum; experiment: Test H: wheat glum blotch, preventive spray on wheat seedlings
Protocol: (the causal agent of wheat glum blotch) and incubated in a saturated atmosphere at 20° C. for 48 h, and then moved to a growth chamber at 22° C. for 5 days, after which disease ratings were made.

[8] = tested on: Erysiphe graminis f. sp. tritici; experiment: Test L: wheat powdery mildew, preventive spray on wheat seedlings
[9] = tested on: Pythium aphanidermatum; experiment: Test A: bluegrass pythium blight, preventive spray on bluegrass seedlings
[10] = tested on: Rhizoctonia oryzae; experiment: Test G: turf brown patch, preventive spray on creeping bent grass seedlings
Protocol: (the causal agent of turf brown patch) and incubated in a saturated atmosphere at 27° C. for 24 h, and then moved to a growth chamber at 27° C. for 5 days, after which disease ratings were made.

[11] = tested on: Colletotrichum orbiculare; experiment: Test B: cucumber Colletotrichum anthracnose, preventive spray on cucumber seedlings
[12] = 40 ppm (marked *), 100 = 100% disease control, 0 = no control
[13] = 200 ppm, 100 = 100% disease control, 0 = no control

| Structure (SMILES) | Test J disease control rating ([3]; 40 ppm (*)) | Test K disease control rating ([5]; 40 ppm (*)) | Test E disease control rating ([6]; 40 ppm (*)) | Test H disease control rating ([7]; 40 ppm (*)) | Test L disease control rating ([8]; 40 ppm (*)) | Test G disease control rating ([10]; 40 ppm (*)) | Test B disease control rating ([11]; 40 ppm (*)) | Test D disease control rating [1, 12] | Test F disease control rating [2, 12] | Test J disease control rating [3, 12] | Test I disease control rating [4, 12] | Test K disease control rating [5, 12] | Test E disease control rating [6, 12] | Test H disease control rating [7, 12] | Test L disease control rating [8, 12] | Test A disease control rating [9, 12] | Test G disease control rating [10, 12] | Test B disease control rating [11, 12] | other results |
| --- | --- | --- | --- | --- | --- | --- | --- | --- | --- | --- | --- | --- | --- | --- | --- | --- | --- | --- | --- |
| CCC(C)Cn1c(-c2ccc(F)cc2Cl)c(Cl)nc(-n2ccc(C(F)(F)F)n2)c1=O (stereo not drawn) [compound 167] | 93* % | 80* % | 0* % | 0* % | 0* % | 0* % | 0* % |  |  |  |  |  |  |  |  |  |  |  | Test D disease control rating ([1]; 40 ppm (*)): 0* %; Test F disease control rating ([2]; 40 ppm (*)): 0* %; Test I disease control rating ([4]; 40 ppm (*)): 0* %; Test A disease control rating ([9]; 40 ppm (*)): 0* % |
| CC(C)Cn1c(-c2c(F)cccc2F)c(Cl)nc(NN=C2CCCC2)c1=O [compound 73] |  |  |  |  |  |  |  |  |  |  |  |  |  |  |  |  |  |  | Test D disease control rating ([1]; 200 ppm): 0%; Test F disease control rating ([2]; 200 ppm): 0%; Test J disease control rating ([3]; 200 ppm): 59%; Test I disease control rating ([4]; 200 ppm): 0%; Test K disease control rating ([5]; 200 ppm): 80%; Test E disease control rating ([6]; 200 ppm): 97%; Test H disease control rating ([7]; 200 ppm): 0%; Test L disease control rating ([8]; 200 ppm): 0%; Test A disease control rating ([9]; 200 ppm): 0%; Test G disease control rating ([10]; 200 ppm): 0%; Test B disease control rating ([11]; 200 ppm): 0% |
| CCC(C)Cn1c(-c2c(F)cccc2F)c(Cl)nc(NN2CCOCC2)c1=O (stereo not drawn) [compound 135] | 0* % | 0* % | 0* % | 0* % | 0* % | 0* % | 0* % |  |  |  |  |  |  |  |  |  |  |  | Test D disease control rating ([1]; 200 ppm): 0%; Test F disease control rating ([2]; 200 ppm): 0%; Test I disease control rating ([4]; 200 ppm): 0%; Test A disease control rating ([9]; 200 ppm): 0% |
| O=c1c(-n2cccn2)nc(Cl)c(-c2c(F)cc(F)cc2F)n1-c1cccc(F)c1 [Compound 324, 5-Chloro-1-(3-fluorophenyl)-3-(1H-pyrazol-1-yl)-6-(2,4,6-trifluorophenyl)-2(1H)-pyrazinone] |  |  |  |  |  |  |  |  |  |  |  |  |  |  |  |  |  |  | pest or weed control at 40 ppm ([1]; Plasmopara viticola, 168 h, 40 ppm (marked *), 100 = 100% disease control, 0 = no control, read-out: Test D disease control rating): 0%; pest or weed control at 40 ppm ([2]; Phytophthora infestans, in Solanum lycopersicum, topical, 144 h, read-out: Test F disease control rating): 0%; pest or weed control at 40 ppm ([3]; Zymoseptoria tritici, 528 h, 40 ppm (marked *), 100 = 100% disease control, 0 = no control, read-out: Test J disease control rating): 100%; pest or weed control at 40 ppm ([4]; Fusarium, in Triticum aestivum, topical, 192 h, read-out: Test I disease control rating, 40 ppm (marked *), 100 = 100% disease control, 0 = no control): 49%; pest or weed control at 40 ppm ([5]; Puccinia recondita, in Triticum aestivum, 192 h, read-out: Test K disease control rating): 100%; pest or weed control at 40 ppm ([6]; Botrytis cinerea, in Solanum lycopersicum, topical, 72 h, read-out: Test E disease control rating): 99%; pest or weed control at 40 ppm ([7]; Parastagonospora nodorum, in Triticum aestivum, topical, 168 h, read-out: Test H disease control rating, 40 ppm (marked *), 100 = 100% disease control, 0 = no control): 100%; pest or weed control at 40 ppm ([8]; Blumeria graminis, in Triticum aestivum, 168 h, read-out: Test L disease control rating, 40 ppm (marked *), 100 = 100% disease control, 0 = no control): 100%; pest or weed control at 40 ppm ([9]; Pythium aphanidermatum, 120 h, read-out: Test A disease control rating): 0%; pest or weed control at 40 ppm ([10]; Waitea circinata, in Agrostis stolonifera, topical, 144 h, read-out: Test G disease control rating, 40 ppm (marked *), 100 = 100% disease control, 0 = no control): 97%; pest or weed control at 40 ppm ([11]; Colletotrichum orbiculare, in Cucumis sativus, 144 h, read-out: Test B disease control rating, 40 ppm (marked *), 100 = 100% disease control, 0 = no control): 99% |
| O=c1c(-n2cccn2)nc(Cl)c(-c2c(F)cccc2F)n1-c1ccc(F)cc1F [compound 386] |  |  |  |  |  |  |  | 57* % | 0* % | 96* % | 0* % | 100* % | 99* % | 100* % | 68* % | 0* % | 99* % | 87* % |  |
| Cc1ccn(-c2nc(Cl)c(-c3c(F)cccc3F)n(-c3ccc(F)cc3F)c2=O)n1 [compound 387] |  |  |  |  |  |  |  | 0* % | 0* % | 99* % | 0* % | 100* % | 99* % | 89* % | 0* % | 0* % | 60* % | 0* % |  |
| O=c1c(-n2cccn2)nc(Cl)c(-c2c(F)cc(F)cc2F)n1-c1ccc(Br)cc1 [compound 352] |  |  |  |  |  |  |  |  |  | 100* % |  | 99* % | 99* % | 97* % | 81* % |  | 31* % | 99* % | Test D disease control rating [1, 13]: 0%; Test F disease control rating [2, 13]: 0%; Test I disease control rating [4, 13]: 63%; Test A disease control rating [9, 13]: 0% |
| CCC(CC)Cn1c(-c2c(F)cccc2F)c(Cl)nc(-n2cccn2)c1=O [compound 183] | 100* % | 99* % | 100* % | 89* % | 92* % | 81* % | 0* % |  |  |  |  |  |  |  |  |  |  |  | Test D disease control rating ([1]; 40 ppm (*)): 0* %; Test F disease control rating ([2]; 40 ppm (*)): 0* %; Test I disease control rating ([4]; 40 ppm (*)): 0* %; Test A disease control rating ([9]; 40 ppm (*)): 0* % |
| CC(C)Cn1c(-c2ccsc2)c(Cl)nc(-n2cccn2)c1=O [compound 154] | 45* % | 0* % | 99* % | 0* % | 0* % | 0* % | 0* % |  |  |  |  |  |  |  |  |  |  |  | Test D disease control rating ([1]; 200 ppm): 50%; Test F disease control rating ([2]; 200 ppm): 0%; Test I disease control rating ([4]; 200 ppm): 0%; Test A disease control rating ([9]; 200 ppm): 0% |
| O=c1c(-n2cccn2)nc(Cl)c(-c2c(F)cc(F)cc2F)n1-c1cccc(Br)c1 [compound 351] |  |  |  |  |  |  |  |  |  | 100* % |  | 100* % | 99* % | 99* % | 100* % |  | 0* % | 99* % | Test D disease control rating [1, 13]: 0%; Test F disease control rating [2, 13]: 0%; Test I disease control rating [4, 13]: 78%; Test A disease control rating [9, 13]: 0% |
| CC[C@H](C)Cn1c(-c2ccc(F)cc2Cl)c(Cl)nc(-n2cccn2)c1=O [compound 263] |  |  |  |  |  |  |  | 0* % | 68* % | 100* % | 0* % | 100* % | 100* % | 100* % | 98* % | 0* % | 84* % | 100* % |  |
| COCCn1c(-c2c(F)cccc2F)c(Cl)nc(-n2ccc(C)n2)c1=O [compound 310] |  |  |  |  |  |  |  | 0* % | 0* % | 42* % | 0* % | 74* % | 0* % | 64* % | 0* % | 0* % | 0* % | 0* % |  |
